Tested on: subjects with moderate-to-severe plaque psoriasis
Assay: Safety, adverse events, Example 2 through Week 56
Format: in vivo, human
Settings: Combined; through Week 56
Excerpt: The LTE safety analysis was based on randomized participants in Example who entered the present long-term extension study and received at least one dose of study intervention (including a partial dose) during the study period.

CC(=O)NCCCC[C@@H]1NC(=O)[C@H](Cc2c[nH]c3c(C)cccc23)NC(=O)[C@H]([C@@H](C)O)NC(=O)[C@H](CC(N)=O)NC(=O)[C@@H](NC(C)=O)C(C)(C)SSC(C)(C)[C@@H](C(=O)N[C@@H](Cc2ccc(OCCN)cc2)C(=O)N[C@@H](Cc2ccc3ccccc3c2)C(=O)NC2(C(=O)N[C@@H](CCC(=O)O)C(=O)N[C@@H](CC(N)=O)C(=O)N[C@@H](Cc3cccnc3)C(=O)N(C)CC(N)=O)CCOCC2)NC1=O [IL-23 receptor antagonist peptide, Ac-[Pen]*-N-T-[W(7-Me)]-[Lys(Ac)]-[Pen]*-Phe[4-(2-aminoethoxy)]-[2-Nal]-[THP]-E-N-[3-Pal]-Sarc-NH2 (*[Pen]-[Pen]* formdisulfidebond)]
Coronary artery disease: % of subjects: (0.4%) | Coronary artery disease: number of subjects: 1 | Cough: % of subjects: (3.2%) | Cough: number of subjects: 8 | Decreased appetite: % of subjects: (0.4%) | Decreased appetite: number of subjects: 1 | Depression: % of subjects: (0.8%) | Depression: number of subjects: 2 | Dermal cyst: % of subjects: (0.4%) | Dermal cyst: number of subjects: 1 | Dermatitis acneiform: % of subjects: (0.4%) | Dermatitis acneiform: number of subjects: 1 | Dermatitis contact: % of subjects: (1.6%) | Dermatitis contact: number of subjects: 4 | Diabetes mellitus: % of subjects: (0.8%) | Diabetes mellitus: number of subjects: 2 | Diffuse alopecia: % of subjects: (0.4%) | Diffuse alopecia: number of subjects: 1 | Dysuria: % of subjects: (0.4%) | Dysuria: number of subjects: 1 | Ear and labyrinth disorders: % of subjects: (1.2%) | Ear and labyrinth disorders: number of subjects: 3 | Endocrine disorders: % of subjects: (0.4%) | Endocrine disorders: number of subjects: 1 | Eye disorders: % of subjects: (1.2%) | Eye disorders: number of subjects: 3 | Eyelid skin dryness: % of subjects: (0.4%) | Eyelid skin dryness: number of subjects: 1 | Fatigue: % of subjects: (1.6%) | Fatigue: number of subjects: 4 | General disorders and administration site conditions: % of subjects: (5.3%) | General disorders and administration site conditions: number of subjects: 13 | Goiter: % of subjects: (0.4%) | Goiter: number of subjects: 1 | Haemochromatosis: % of subjects: (0.4%) | Haemochromatosis: number of subjects: 1 | Hand dermatitis: % of subjects: (0.4%) | Hand dermatitis: number of subjects: 1 | Hematuria: % of subjects: (0.8%) | Hematuria: number of subjects: 2 | Hepatobiliary disorders: % of subjects: (1.2%) | Hepatobiliary disorders: number of subjects: 3 | Hypercholesterolemia: % of subjects: (0.4%) | Hypercholesterolemia: number of subjects: 1 | Hyperglycemia: % of subjects: (1.6%) | Hyperglycemia: number of subjects: 4 | Hyperlipidemia: % of subjects: (0.4%) | Hyperlipidemia: number of subjects: 1 | Hypertension: % of subjects: (2.8%) | Hypertension: number of subjects: 7 | Hypertransaminasemia: % of subjects: (0.4%) | Hypertransaminasemia: number of subjects: 1 | Hypertriglyceridemia: % of subjects: (0.4%) | Hypertriglyceridemia: number of subjects: 1 | Hypoacusis: % of subjects: (0.4%) | Hypoacusis: number of subjects: 1 | Immune system disorders: % of subjects: (0.8%) | Immune system disorders: number of subjects: 2 | Influenza like illness: % of subjects: (0.4%) | Influenza like illness: number of subjects: 1 | Insomnia: % of subjects: (0.8%) | Insomnia: number of subjects: 2 | Intertrigo: % of subjects: (0.4%) | Intertrigo: number of subjects: 1 | Ketonuria: % of subjects: (0.4%) | Ketonuria: number of subjects: 1 | Leukocyturia: % of subjects: (0.4%) | Leukocyturia: number of subjects: 1 | Leukopenia: % of subjects: (0.4%) | Leukopenia: number of subjects: 1 | Libido decreased: % of subjects: (0.4%) | Libido decreased: number of subjects: 1 | Liver disorder: number of subjects: 0 | Lymphopenia: % of subjects: (0.8%) | Lymphopenia: number of subjects: 2 | Menopause: % of subjects: (0.4%) | Menopause: number of subjects: 1 | Metabolism and nutrition disorders: % of subjects: (4.5%) | Metabolism and nutrition disorders: number of subjects: 11 | Neoplasms benign, malignant and unspecified (incl cysts and polyps): % of subjects: (2.4%) | Neoplasms benign, malignant and unspecified (incl cysts and polyps): number of subjects: 6 | Nephrolithiasis: % of subjects: (0.4%) | Nephrolithiasis: number of subjects: 1 | Neutropenia: % of subjects: (0.8%) | Neutropenia: number of subjects: 2 | Night sweats: % of subjects: (0.4%) | Night sweats: number of subjects: 1 | Non-cardiac chest pain: % of subjects: (0.4%) | Non-cardiac chest pain: number of subjects: 1 | Ocular cyst: % of subjects: (0.4%) | Ocular cyst: number of subjects: 1 | Oedema peripheral: % of subjects: (1.6%) | Oedema peripheral: number of subjects: 4 | Oropharyngeal pain: % of subjects: (0.8%) | Oropharyngeal pain: number of subjects: 2 | Procedural pain: % of subjects: (0.4%) | Procedural pain: number of subjects: 1 | Productive cough: % of subjects: (0.4%) | Productive cough: number of subjects: 1 | Proteinuria: % of subjects: (0.4%) | Proteinuria: number of subjects: 1 | Pruritus: % of subjects: (0.8%) | Pruritus: number of subjects: 2 | Psoriasis: % of subjects: (1.2%) | Psoriasis: number of subjects: 3 | Psychiatric disorders: % of subjects: (2.0%) | Psychiatric disorders: number of subjects: 5 | Pyrexia: % of subjects: (0.8%) | Pyrexia: number of subjects: 2 | Rash pruritic: number of subjects: 0 | Renal and urinary disorders: % of subjects: (3.2%) | Renal and urinary disorders: number of subjects: 8 | Renal mass: % of subjects: (0.4%) | Renal mass: number of subjects: 1 | Respiratory, thoracic and mediastinal disorders: % of subjects: (5.3%) | Respiratory, thoracic and mediastinal disorders: number of subjects: 13 | Retinal vein occlusion: % of subjects: (0.4%) | Retinal vein occlusion: number of subjects: 1 | Rhinorrhoea: % of subjects: (0.4%) | Rhinorrhoea: number of subjects: 1 | Seasonal allergy: % of subjects: (0.8%)
